The text below walks through data of patent US10215755B2, “Method of diagnosing and treating Epstein Barr virus-based myalgic encephalomyelitis chronic fatigue syndrome patients” (CFS, LLC, priority 2012, dated 2019).

The target in one test is EBV thymidine kinase (Epstein-Barr virus, UniProt P03177). The note with it: after gastrointestinal absorption; cited from earlier work.
Another test has as its system group A ME/CFS patients. Kind of test: Follow-up of 106 group A ME/CFS patients 2001-2007 under subset directed antiviral treatment. Type of test: in vivo, human. The conditions noted are these: 79 of 106 group A patients, valacyclovir (EBV subset) or valganciclovir (HCMV, HHV6 subsets), 2001-2007, p<0.0001. The text has this:
A ME/CFS diagnostic panel was created utilizing initial Fukuda/Carruthers criteria and a systematic review of 142 ME/CFS patients. Two groups of ME/CFS patients were found. Group A patients had elevated serum IgG antibody titers to the herpes viruses Epstein-Barr virus (EBV), cytomegalovirus (HCMV) and Human Herpes virus 6 (HHV6) in single or multiple virus infection, but no other co-infections. Group B patients had similar elevated herpes virus antibody titers, plus serologic evidence of co-infections, tick-borne (“Borrelia burgdorferi”, “Anaplasma phagocytophilia”, “Babesia microti”); “Mycoplasma pneumoniae”; or adult rheumatoid fever. One hundred and six group A ME/CFS patients were followed from 2001-2007, and treated with subset directed valacyclovir EBV subset or valganciclovir (HCMV, HHV6 subsets). The data included over 7000 patient visits and 35,000 data entries.

For test [1], the system named is early herpes virus proteins. The note with it: cited from earlier work.
The test system of test [2] is EBV subset ME/CFS patients. As to the kind of experiment: Energy Index Point Score (EIPS) of six EBV subset ME/CFS patients treated with valacyclovir for ≥12 months. The note with it: for EIPS final: valacyclovir ≥12 months. Type of test: in vivo, human. The protocol: As depicted in Table 1, the Energy Index (EI) point score (Copyright, Lerner A M and Deeter R G, 1999), is a simple and reliable metric that can be used to easily evaluate the functional capacity of the CFS patient at each patient-physician visit. The EI is measured on a scale of 1-10. Validation of the EI was done using two methods: 1.) 20 CFS patients and 22 healthy adults, matched for sex, age, place, and time; EI, CFS=3.6; EI, healthy adults=9.9, p=<0.0001; and 2.) 55 CFS patients evaluated at the same time by the EI and fatigue severity score, correlation 0.67, p=0.0066. Improvement to disappearance of CFS symptoms correlates with an increasing EI.
The validated energy index point score generally can be calculated for each CFS patient every 3 months at physician visits. A CFS patient has an EI≤5. A CFS patient with an […] is bedridden; a CFS diagnosis is no longer present at an EI>5. The EI effect size is 0.25, a medium effect size is 0.5. A large effect size is >0.8.
6 ME/CFS patients were identified as Group A EBV subset (five patients), and one patient (group B) had co-infection with Borrelia burgdorferi. […] A ME/CFS treatment decision tree that developed from the systematic review of the 142 ME/CFS patients is provided as FIG. 1.
Demographics. ME/CFS patients (Table 2) the six ME/CFS patients (5 women) were selected from 142 ME/CFS of the 2001-2007 systematic review. They were 37-59 years old. Serum samples were taken at intervals Mar. 5, 2002-Nov. 14, 2003. There were 7 to 10 sera from each patient. Five of the 6 ME/CFS patients were Group A (no co-infections), and one patient had co-infection with Borrelia burgdorferi (patient no. 2). Five of the 6 patients were HCMV IgG serum antibody negative. Initial EIPS values were 3.5-5.0, meaning that patients could be out of bed only 3 to 4 hours a day, and required daily naps in bed to complete each day. One ME/CFS patient was able to struggle to complete a sedentary working day (Table 2, patient no. 6). […] They struggled at baseline to maintain their sedentary working day, required a daytime nap, and could no longer do any exercise without marked syncope and worsening fatigue. One year later the final EIPS values were 7-8, for the 5 group A ME/CFS patients, meaning that patients could now live normal lives. The single group B ME/CFS patient's final EIPS value increased from a baseline of 3.5 to 5, but this […] still met international criteria diagnosis of ME/CFS. The EIPS is a validated (FSS-9 item scale with high degree of internal consistency measured by Cronbach's alpha) is a Functional Activity Appraisal: energy Index Score Healthcare worker Appraisal.

A further test has as its target HV6 DNA polymerases (Human herpesvirus 6A, UniProt P28857). The conditions noted are these: cited from earlier work.
In another test the target is HCMV DNA polymerases (Human cytomegalovirus, UniProt P08546). The note with it: cited from earlier work.
Chain of HCMV DNA polymerases (P08546 whole entry): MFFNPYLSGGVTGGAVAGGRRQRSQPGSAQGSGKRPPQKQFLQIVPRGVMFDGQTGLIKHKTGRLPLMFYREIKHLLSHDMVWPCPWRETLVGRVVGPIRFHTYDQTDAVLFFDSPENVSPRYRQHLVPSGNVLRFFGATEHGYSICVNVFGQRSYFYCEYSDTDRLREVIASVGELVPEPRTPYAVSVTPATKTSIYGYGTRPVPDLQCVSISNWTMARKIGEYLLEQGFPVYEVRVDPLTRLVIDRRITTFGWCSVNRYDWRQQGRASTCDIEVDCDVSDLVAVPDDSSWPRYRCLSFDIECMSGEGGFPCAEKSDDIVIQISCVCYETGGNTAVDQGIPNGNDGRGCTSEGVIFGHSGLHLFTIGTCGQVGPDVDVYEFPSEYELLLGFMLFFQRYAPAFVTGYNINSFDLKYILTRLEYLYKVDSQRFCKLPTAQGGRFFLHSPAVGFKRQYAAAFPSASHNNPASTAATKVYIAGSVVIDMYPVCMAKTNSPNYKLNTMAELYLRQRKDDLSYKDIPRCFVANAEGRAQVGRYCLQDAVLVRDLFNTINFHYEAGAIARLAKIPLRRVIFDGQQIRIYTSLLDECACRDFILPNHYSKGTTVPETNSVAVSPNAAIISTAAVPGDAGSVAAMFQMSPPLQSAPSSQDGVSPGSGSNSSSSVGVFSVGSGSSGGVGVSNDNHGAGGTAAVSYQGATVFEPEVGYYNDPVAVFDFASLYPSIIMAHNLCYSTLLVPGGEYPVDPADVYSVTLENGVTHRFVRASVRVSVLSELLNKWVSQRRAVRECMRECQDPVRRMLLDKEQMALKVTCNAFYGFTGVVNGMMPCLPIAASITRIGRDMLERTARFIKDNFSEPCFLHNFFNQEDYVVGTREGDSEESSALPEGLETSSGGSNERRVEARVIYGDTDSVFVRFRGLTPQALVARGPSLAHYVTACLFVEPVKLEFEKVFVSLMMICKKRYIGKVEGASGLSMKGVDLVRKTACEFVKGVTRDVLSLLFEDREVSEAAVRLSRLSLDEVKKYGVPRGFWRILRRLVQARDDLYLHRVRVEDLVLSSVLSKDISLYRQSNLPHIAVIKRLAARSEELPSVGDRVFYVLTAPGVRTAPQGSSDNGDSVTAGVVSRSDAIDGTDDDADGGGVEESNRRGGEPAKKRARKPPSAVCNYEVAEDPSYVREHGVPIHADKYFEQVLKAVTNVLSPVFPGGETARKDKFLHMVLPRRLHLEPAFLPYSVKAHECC

Structures are written as SMILES.

Chain of EBV thymidine kinase (P03177 whole entry): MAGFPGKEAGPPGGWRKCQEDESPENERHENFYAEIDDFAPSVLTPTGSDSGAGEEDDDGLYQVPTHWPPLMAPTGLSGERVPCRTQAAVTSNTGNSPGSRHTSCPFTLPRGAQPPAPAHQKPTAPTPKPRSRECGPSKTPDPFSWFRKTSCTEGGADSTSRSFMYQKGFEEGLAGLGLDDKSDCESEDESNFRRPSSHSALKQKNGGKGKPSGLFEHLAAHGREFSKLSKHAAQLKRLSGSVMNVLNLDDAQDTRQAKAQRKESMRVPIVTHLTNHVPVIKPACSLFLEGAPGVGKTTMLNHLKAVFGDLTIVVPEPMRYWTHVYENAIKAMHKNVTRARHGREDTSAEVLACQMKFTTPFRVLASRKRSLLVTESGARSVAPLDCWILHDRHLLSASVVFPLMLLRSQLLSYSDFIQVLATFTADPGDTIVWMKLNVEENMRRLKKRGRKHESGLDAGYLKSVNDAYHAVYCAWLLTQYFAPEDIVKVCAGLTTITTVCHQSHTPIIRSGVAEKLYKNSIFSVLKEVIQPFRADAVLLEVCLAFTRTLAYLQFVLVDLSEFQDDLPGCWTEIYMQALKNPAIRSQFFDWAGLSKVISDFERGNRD
Chain of HV6 DNA polymerases (P28857 whole entry): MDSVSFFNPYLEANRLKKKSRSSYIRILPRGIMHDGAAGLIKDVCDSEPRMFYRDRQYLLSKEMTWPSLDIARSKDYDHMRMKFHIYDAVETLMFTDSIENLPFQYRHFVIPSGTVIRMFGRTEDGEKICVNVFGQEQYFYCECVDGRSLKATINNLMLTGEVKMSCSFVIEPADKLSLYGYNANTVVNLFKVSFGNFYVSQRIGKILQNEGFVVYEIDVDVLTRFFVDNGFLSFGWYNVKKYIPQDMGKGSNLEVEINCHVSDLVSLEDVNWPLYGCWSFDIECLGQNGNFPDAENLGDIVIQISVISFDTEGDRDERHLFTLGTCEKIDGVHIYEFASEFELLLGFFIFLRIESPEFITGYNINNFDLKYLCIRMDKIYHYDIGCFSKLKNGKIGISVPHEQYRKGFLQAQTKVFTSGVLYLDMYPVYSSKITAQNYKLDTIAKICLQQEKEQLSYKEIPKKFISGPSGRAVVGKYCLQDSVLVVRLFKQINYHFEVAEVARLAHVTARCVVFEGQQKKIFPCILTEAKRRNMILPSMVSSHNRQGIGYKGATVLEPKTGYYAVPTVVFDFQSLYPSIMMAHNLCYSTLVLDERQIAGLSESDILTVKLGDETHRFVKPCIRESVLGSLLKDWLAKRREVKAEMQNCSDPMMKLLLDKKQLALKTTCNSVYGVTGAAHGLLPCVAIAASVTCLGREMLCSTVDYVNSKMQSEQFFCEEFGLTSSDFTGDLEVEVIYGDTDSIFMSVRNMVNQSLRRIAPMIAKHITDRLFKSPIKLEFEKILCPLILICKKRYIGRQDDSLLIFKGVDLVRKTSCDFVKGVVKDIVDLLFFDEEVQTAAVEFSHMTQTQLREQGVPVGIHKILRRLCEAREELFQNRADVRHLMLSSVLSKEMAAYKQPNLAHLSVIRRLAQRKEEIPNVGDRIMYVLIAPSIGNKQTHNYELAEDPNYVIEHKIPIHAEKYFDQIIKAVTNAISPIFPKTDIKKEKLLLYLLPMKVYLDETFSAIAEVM

Take `CC(C)[C@H](N)C(=O)OCCOCn1cnc2c(=O)[nH]c(N)nc21` [valacyclovir]: on EBV thymidine kinase, the “greater affinity for EBV thymidine kinase than for the host cellular enzyme” value is reported as 200 ×. Also, the “group A patients recovered to resume normal life” value with group A ME/CFS patients was 74.5%. Moreover, the “inhibition of early herpes virus proteins” value in test [1] is listed as “do not inhibit”. In addition, the EIPS final result in test [2] (patient 1, Group A, no co-infection, EIPS 5 baseline) was “EIPS 8”; in test [2] (patient 2, Group B, co-infection Lyme disease, EIPS 3.5 baseline) it was “EIPS 5”; in test [2] (patient 3, Group A, no co-infection, EIPS 5 baseline) it was “EIPS 8”; in test [2] (patient 4, Group A, no co-infection, EIPS 4 baseline) it was “EIPS 7”; in test [2] (patient 6, Group A, no co-infections, EIPS 6 baseline) it was “EIPS 7”. Further, in test [2] (single group B ME/CFS patient, baseline 3.5, still met criteria of ME/CFS), the “final EIPS value” came to 5. In test [2] (the 5 group A ME/CFS patients, one year later, initial EIPS 3.5-5.0 (one patient 6)), the “final EIPS values” is recorded as 7-8.
`CC(C)[C@H](N)C(=O)OCC(CO)OCn1cnc2c(=O)nc(N)[nH]c21` (some centres unmarked) [valganciclovir]: the “inhibition of HV6 DNA polymerases” value at HV6 DNA polymerases is reported as “inhibits”. The “group A patients recovered to resume normal life” value with group A ME/CFS patients came to 74.5%. Also, the “inhibition of HCMV DNA polymerases” value on HCMV DNA polymerases is on record as “inhibits”. The “inhibition of early herpes virus proteins” value in test [1] was “do not inhibit”.
